These results are taken from patent publication US20100247489A1, “USE OF A COMPOSITION MADE OF MINERAL NUTRIENTS AND OPTIONALLY ACETOGENIC AND/OR BUTYROGENIC BACTERIA IN ORDER TO AVOID OR REDUCE THE FORMATION OF GAS IN THE LARGE INTESTINE OF A MAMMAL AND THE RESULTING ABDOMINAL PROBLEMS” (priority 2006, published 2010).

The subject of experiment [1] is Feces samples from 20 persons. In words: Incubation of homogenized feces samples with fructose and minerals, gas-meter (Example 3). Also noted: species or system human. The settings on record: 1 g fructose per 100 g of feces; for reduction in the amount of gas, in words: 20 feces samples; for amounts of gas: incubated at 37°, control 150 ml. How it is done: The incubation containers were all added with 1 g fructose per 100 g of feces, and additionally with 1. Selenium 20 μg; 2. 40 μg tungsten, 3. […] 20 μg Selenium plus 40 μg molybdenum; 6. 40 μg Selenium plus 20 μg tungsten plus 1 drop multivitamin solution “Multibionta”, 7. 40 μg Selenium plus 20 μg tungsten plus 1 drop multivitamin solution “Multibionta” plus 1 mg of iron plus 20 μg nickel. A control tank was added only with fructose.
The incubation containers were fitted with a gas-meter, sealed gas-tight and incubated at 37°.

A further experiment relates to meteorism. In words: Person with meteorism after fiber-rich meals (Examples 15 and 16). The class given is in vivo, human. To be noted: 1.5 mg three times daily in water, after one week of treatment. The protocol: A person who suffers from meteorism after eating fiber-rich meals is treated three times daily with 1.5 mg of sodium tungstate, which is dissolved in water administered with the drinking fluid during the main meals.
A person who suffers from meteorism after eating fiber-rich meals is treated three times daily with 1.5 mg of sodium tungstate, which is dissolved in 100 ml water with the addition of 100 mg phytic acid and is allowed to rest for 30 minutes, and is administered to the main meals with the drinking fluid.

Regarding Selenium, in experiment [1], the “reduction in the amount of gas, in words” value is “significant gas reduction” and the amounts of gas is 110 mL. Take `[Na+].[Na+].[O]=[W](=[O])([O-])[O-]` [sodium tungstate]: the meteorism entry in the experiment on meteorism is recorded as “significantly decreases”. `[W]` [W, tungsten]: in experiment [1], the “reduction in the amount of gas, in words” value is on record as “significant gas reduction” and the amounts of gas came out at 100 mL.
